Values after ≈ are worked out from the molar mass of the structure shown. Active and inactive are the calls of the source. No cut-off for these calls is given here. Where a SMILES comes first, the peptide text is derived from it. The star is where a group is joined. Myristoyl = CCCCCCCCCCCCCC(=O)*; Decanoyl = CCCCCCCCCC(=O)*; Spermine = NCCCNCCCCNCCCN*
How the values were obtained:
Staphylococcus aureus [1] = assay: Antibacterial activity against MDR-methicillin-resistant Staphylococcus aureus ATCC BAA-44 assessed as reduction in bacterial growth measured after 18 hrs by broth microdilution method; type: functional
[2] = system: Staphylococcus epidermidis; assay: Antibacterial activity against Staphylococcus epidermidis ATCC 12228 assessed as reduction in bacterial growth measured after 18 hrs by broth microdilution method; type: functional
Acinetobacter baumannii = assay: Antibacterial activity against Acinetobacter baumannii i ATCC 19606 assessed as reduction in bacterial growth measured after 18 hrs by broth microdilution method; type: functional
Pseudomonas aeruginosa = assay: Antibacterial activity against Pseudomonas aeruginosa ATCC BAA-427 assessed as reduction in bacterial growth measured after 18 hrs by broth microdilution method; type: functional
Staphylococcus aureus [3] = assay: Antibacterial activity against methicillin-resistant Staphylococcus aureus ATCC 33591 assessed as reduction in bacterial growth measured after 18 hrs by broth microdilution method; type: functional
Staphylococcus aureus [4] = assay: Antibacterial activity against Staphylococcus aureus ATCC 25923 assessed as reduction in bacterial growth measured after 18 hrs by broth microdilution method; type: functional
[5] = system: Staphylococcus epidermidis; assay: Antibacterial activity against methicillin-resistant Staphylococcus epidermidis ATCC 51625 assessed as reduction in bacterial growth measured after 18 hrs by broth microdilution method; type: functional
Escherichia coli [6] = assay: Antibacterial activity against Escherichia coli ATCC 25922 assessed as reduction in bacterial growth measured after 18 hrs by broth microdilution method; type: functional
Cell membrane [7] = assay: Disruption of bacterial cell membrane in Escherichia coli ATCC 25922 at 5XMIC by SEM analysis; type: subcellular
Cell membrane [8] = assay: Disruption of bacterial cell membrane in Escherichia coli ATCC 25922 assessed as proportion of bacteria with intact cell membrane at 5X MIC incubated for 1 hr by PI staining based flow cytometric analysis (reference value: 99.3%); type: subcellular
Cell membrane [9] = assay: Disruption of bacterial cell membrane in Escherichia coli ATCC 25922 assessed as proportion of bacteria with damaged cell membrane at 5X MIC incubated for 1 hr by PI staining based flow cytometric analysis (reference value: 0.7%); type: subcellular
Staphylococcus aureus [10] = assay: In vivo antibacterial activity against Staphylococcus aureus ATCC 25923 infected in BALB/c mouse model assessed as reduction of bacterial load in kidney at 100 mg/kg, ip administered as single dose measured after 24 hrs by colony counting based analysis; type: functional, organism-based
Staphylococcus aureus [11] = assay: In vivo antibacterial activity against Staphylococcus aureus ATCC 25923 infected in BALB/c mouse model assessed as reduction of bacterial load in spleen at 100 mg/kg, ip administered as single dose measured after 24 hrs by colony counting based analysis; type: functional, organism-based
Staphylococcus aureus [12] = assay: In vivo antibacterial activity against Staphylococcus aureus ATCC 25923 infected in BALB/c mouse model assessed as reduction of bacterial load in liver at 100 mg/kg, ip administered as single dose measured after 24 hrs by colony counting based analysis; type: functional, organism-based
[13] = Cytotoxicity against human THP-1 cells assessed as cell viability at 50 uM by MTT assay; type: toxicity, cell-based; conditions: read-out: Activity
Escherichia coli [14] = assay: Antibacterial activity against Escherichia coli ATCC 25922 assessed as reduction in bacterial growth measured after 18 hrs in presence of 10% v/v human serum in MHB by broth microdilution method; type: functional; conditions: ATCC 25922, Serum
Erythrocyte = assay: Hemolytic activity against human RBC assessed as hemolysis upto 100 uM incubated for 1 hr by ELISA plate reader analysis; type: toxicity, cell-based

Compound | MIC (Staphylococcus aureus [1]) | MIC [2] | MIC (Acinetobacter baumannii) | MIC (Pseudomonas aeruginosa) | MIC (Staphylococcus aureus [3]) | MIC (Staphylococcus aureus [4]) | MIC [5] | MIC (Escherichia coli [6]) | other results
CC1(C)S[C@@H]2[C@H](NC(=O)[C@H](N)c3ccccc3)C(=O)N2[C@H]1C(=O)O [AMPICILLIN] | 125 µM (≈ 43.7 µg/mL) |  |  |  |  |  |  |  | 
N=C(N)NCCC[C@H](NC(=O)[C@@H]1CCCN1C(=O)[C@@H]1CCCN1C(=O)[C@H](CCCNC(=N)N)NC(=O)[C@@H]1CCCN1C(=O)[C@H](CCCNC(=N)N)NC(=O)[C@@H]1CCCN1)C(=O)NCCCNCCCCNCCCN (H-PRPRPPR-Spermine) | > 200 µM | > 200 µM | > 200 µM | > 200 µM | > 200 µM | 200 µM (≈ 212 µg/mL) | > 200 µM | > 200 µM | 
CN(C)[C@@H]1C(O)=C(C(N)=O)C(=O)[C@@]2(O)C(O)=C3C(=O)c4c(O)cccc4[C@@](C)(O)[C@H]3C[C@@H]12 [TETRACYCLINE] | 62.5 µM (≈ 27.8 µg/mL) |  |  |  |  |  |  |  | 
O=C(N[C@H](CO)[C@H](O)c1ccc([N+](=O)[O-])cc1)C(Cl)Cl [CHLORAMPHENICOL] | 1000 µM (≈ 323 µg/mL) |  |  |  |  |  |  |  | 
CO[C@H]1/C=C/O[C@@]2(C)Oc3c(C)c(O)c4c(O)c(c(/C=N/N5CCN(C)CC5)c(O)c4c3C2=O)NC(=O)/C(C)=C\C=C\[C@H](C)[C@H](O)[C@@H](C)[C@@H](O)[C@@H](C)[C@H](OC(C)=O)[C@@H]1C [RIFAMPIN] | 1.25 µM (≈ 1.03 µg/mL) |  |  |  |  |  |  |  | 
CCCCCCCCCCCC(=O)NCCCNCCCCNCCCN | > 200 µM | > 200 µM | > 200 µM | > 200 µM | > 200 µM | > 200 µM | > 200 µM | > 200 µM | 
CC[C@H](C)[C@H](NC(=O)CN)C(=O)NCC(=O)N[C@@H](C)C(=O)N[C@H](C(=O)N[C@@H](CC(C)C)C(=O)N[C@@H](CCCCN)C(=O)N[C@H](C(=O)N[C@@H](CC(C)C)C(=O)N[C@H](C(=O)N[C@H](C(=O)NCC(=O)N[C@@H](CC(C)C)C(=O)N1CCC[C@H]1C(=O)N[C@@H](C)C(=O)N[C@@H](CC(C)C)C(=O)N[C@H](C(=O)N[C@@H](CO)C(=O)N[C@@H](Cc1c[nH]c2ccccc12)C(=O)N[C@H](C(=O)N[C@@H](CCCCN)C(=O)N[C@@H](CCCNC(=N)N)C(=O)N[C@@H](CCCCN)C(=O)N[C@@H](CCCNC(=N)N)C(=O)N[C@@H](CCC(N)=O)C(=O)N[C@@H](CCC(N)=O)C(N)=O)[C@@H](C)CC)[C@@H](C)CC)[C@@H](C)O)[C@@H](C)O)C(C)C)C(C)C |  |  |  |  |  |  |  |  | Activity (Cell membrane [7]): Active; Activity (Cell membrane [8]): 36%; Activity (Cell membrane [9]): 64%
C[C@H]1COc2c(N3CCN(C)CC3)c(F)cc3c(=O)c(C(=O)O)cn1c23 |  |  |  |  |  |  |  |  | Activity (Staphylococcus aureus [10]): Active; Activity (Staphylococcus aureus [11]): Active; Activity (Staphylococcus aureus [12]): Active
GENTAMICIN | 2.5 µM |  |  |  |  |  |  |  | 
CCCCCCCCCCCCCC(=O)N1CCC[C@H]1C(=O)N[C@@H](CCCNC(=N)N)C(=O)N1CCC[C@H]1C(=O)N[C@@H](CCCNC(=N)N)C(=O)N1CCC[C@H]1C(=O)N1CCC[C@H]1C(=O)N[C@@H](CCCNC(=N)N)C(=O)NCCCNCCCCNCCCN (Myristoyl-PRPRPPR-Spermine) | 1.5 µM (≈ 1.9 µg/mL) | 1.5 µM (≈ 1.9 µg/mL) | 6.2 µM (≈ 7.87 µg/mL) | 6.2 µM (≈ 7.87 µg/mL) | 1.5 µM (≈ 1.9 µg/mL) | 3.1 µM (≈ 3.94 µg/mL) | 1.5 µM (≈ 1.9 µg/mL) | 3.1 µM (≈ 3.94 µg/mL) | viability at 50 µM [13]: 40%; MIC (Escherichia coli [14]): 3.1 µM; Activity (Erythrocyte): Toxic
NC[C@@H]1O[C@H](O[C@H]2[C@@H](O)[C@H](O[C@@H]3[C@@H](O)[C@H](N)C[C@H](N)[C@H]3O[C@H]3O[C@H](CN)[C@@H](O)[C@H](O)[C@H]3N)O[C@@H]2CO)[C@H](N)[C@@H](O)[C@@H]1O [FRAMYCETIN] | 125 µM (≈ 76.8 µg/mL) |  |  |  |  |  |  |  | 
H-PRPRPPR-OH | > 200 µM | > 200 µM | > 200 µM | > 200 µM | > 200 µM | > 200 µM | > 200 µM | > 200 µM | 
CCCCCCCCCC(=O)NCCCNCCCCNCCCN | > 200 µM | > 200 µM | > 200 µM | > 200 µM | > 200 µM | > 200 µM | > 200 µM | > 200 µM | 
CCCCCCCCCC(=O)N1CCC[C@H]1C(=O)N[C@@H](CCCNC(=N)N)C(=O)N1CCC[C@H]1C(=O)N[C@@H](CCCNC(=N)N)C(=O)N1CCC[C@H]1C(=O)N1CCC[C@H]1C(=O)N[C@@H](CCCNC(=N)N)C(=O)O (Decanoyl-PRPRPPR-OH) | > 200 µM | > 200 µM | > 200 µM | > 200 µM | > 200 µM | > 200 µM | > 200 µM | > 200 µM | 
CN[C@H](CC(C)C)C(=O)N[C@H]1C(=O)N[C@@H](CC(N)=O)C(=O)N[C@H]2C(=O)N[C@H]3C(=O)N[C@H](C(=O)N[C@H](C(=O)O)c4cc(O)cc(O)c4-c4cc3ccc4O)[C@H](O)c3ccc(c(Cl)c3)Oc3cc2cc(c3O[C@@H]2O[C@H](CO)[C@@H](O)[C@H](O)[C@H]2O[C@H]2C[C@](C)(N)[C@H](O)[C@H](C)O2)Oc2ccc(cc2Cl)[C@H]1O [VANCOMYCIN] | 0.8 µM (≈ 1.16 µg/mL) | 0.4 µM (≈ 0.58 µg/mL) | 56.8 µM (≈ 82.3 µg/mL) |  | 0.8 µM (≈ 1.16 µg/mL) | 0.4 µM (≈ 0.58 µg/mL) | 0.8 µM (≈ 1.16 µg/mL) | 200 µM (≈ 290 µg/mL) | 
